{
  "source": "patent US8080379B2",
  "about": "“Branched and multi-chain nucleic acid switches for sensing and screening” (Syracuse University, priority 2004, dated 2011)",
  "key": {"[1]": {"experiment": "H/O conformational equilibrium of the C3 switch by fluorescence", "type": "physicochemical", "conditions": "no protein", "description": "Such “molecular beacons” operate on the principle of FRET.\nIt is appropriate to examine the two extreme states in FIG. 11 (sequences M1 and M2 in Table 2). This allows evaluation of the position of the K1 equilibrium shift upon changing the sequence. Simply put, the luminescence of pure H and O are known, so their populations in a mixed system are just linear functions of the measured luminescence."}, "NCp7 [2]": {"biological_target": "T1, NCp7 (Human immunodeficiency virus type 1 group M subtype B, UniProt P12493)", "conditions": "read-out: Kd′, single binding constant fit of FRET titration; Nt≅10 nM; emission at 517 nm", "method": "FRET-monitored titration of the C3 (SEQ ID NO: 7) (Nt≅10 nM). [NCp7] increases left to right, expressed as the ratio Pt/Nt. The emission at 517 nm is reported after subtracting that of the RNase treated sample. […] Uncertainty in Nt limits the precision of this determination.\nA fluorophore is placed at the 5′-end of the chain (*), and a quencher at the location marked Q. The distance between fluorophore and quencher is much larger in H than in O, so H has much stronger fluorescence."}, "NC": {"biological_target": "NC (Human immunodeficiency virus type 1 group M subtype B, UniProt P12493)", "conditions": "cited from earlier work"}, "NCp7 [3]": {"biological_target": "T1, NCp7", "conditions": "10 nM concentration of the switch"}},
  "data": [
    {"molecule": "C3: unimolecular bistable RNA/DNA switch, SEQ ID NO: 7, with FAM fluorophore and Dabsyl quencher (GCTATCCACCGATAGCTCCAACACGCUAGCGGUGGCUAGC; RNA/DNA chimera, FAM fluorophore and Dabsyl quencher, positions not given here)", "values": [
      {"measurement": "K1 = [O]/[H]", "setting": "[1]", "result": 0.08},
      {"measurement": "Kd", "setting": "NCp7 [2]", "result": 0.5, "unit": "µM"}
    ]},
    {"molecule": "c(F-C-dW-R-C-K)", "values": [
      {"measurement": "competition with NC for in vitro recognition of its RNA, DNA and protein targets", "setting": "NC", "result": "competes with NC"}
    ]},
    {"molecule": "M3: tethered duplex of all-DNA chain SEQ ID NO: 3 and DNA/RNA chimeric chain SEQ ID NO: 6 (nucleic acid, chain 1: DNA, backbone not given here; chain 2: chemistry not given here; strands tethered, second strand DNA/RNA chimera) chain 1: GCTATCCACCGATAGCTCACAGCACGACTCAGATGG chain 2: CCATCTGAGTCGTGCACGCUAGCGGUGGCUAGC", "values": [
      {"measurement": "time of equilibration with NCp7", "setting": "NCp7 [3]", "result": "within a minute"}
    ]}
  ]
}
